Data reported in ChEMBL document CHEMBL3425504, “Lead optimization of spiropyrazolopyridones: a new and potent class of dengue virus inhibitors” (ACS Med Chem Lett, 2015).
In brackets after ≈: the same amount, converted by molar mass. Activity calls are given as the source filed them. No cut-off for these calls is given here.

Assays:
dengue virus type 2 [1] = assay: Antiviral activity against dengue virus 2 infected in BHK21 cells incubated for 48 hrs by CFI assay; assay type: functional, organism-based; details: BHK-21, 48 h
[2] = Cytotoxicity against human HepG2 cells incubated for 96 hrs by CCK8 assay; assay type: cell-based
dengue virus type 2 [3] = assay: Antiviral activity against dengue virus 2 infected in human A549 cells incubated for 48 hrs by viral titer reduction assay; assay type: functional, organism-based; details: A549, 48 h
[4] = Lipophilicity, log P of the compound; assay type: physicochemical; details: octanol/water
[5] = Hepatic extraction ratio in mouse liver microsomes; assay type: ADME; details: read-out: ERH
[6] = Half life in mouse liver microsomes; assay type: ADME
[7] = Cmax in Wistar rat at 25 mg/kg, po after 0.17 to 24 hrs by LC-MS/MS method; assay type: ADME, organism-based; design: dose 25 mg/kg, route oral; details: in vivo
[8] = Tmax in Wistar rat at 25 mg/kg, po after 0.17 to 24 hrs by LC-MS/MS method; assay type: ADME, organism-based; design: dose 25 mg/kg, route oral; details: in vivo
[9] = AUC (0 to 24 hrs) in Wistar rat at 25 mg/kg, po after 0.17 to 24 hrs by LC-MS/MS method; assay type: ADME, organism-based; design: time < 24 hr, dose 25 mg/kg, route oral; details: plasma
[10] = Absolute oral bioavailability in Wistar rat at 25 mg/kg after 0.17 to 24 hrs by LC-MS/MS method; assay type: ADME, organism-based; details: in vivo
dengue virus type 2 [11] = assay: Antiviral activity against dengue virus 2 TSV01 in AG129 mouse model of dengue viremia assessed as log reduction in virus plaques at 50 mg/kg, po BID for 3 days relative to untreated control; assay type: functional
[12] = Solubility in pH 6.8 buffer
[13] = Plasma clearance in Wistar rat at 5 mg/kg, iv after 0.17 to 24 hrs by LC-MS/MS method
[14] = Terminal half-life in Wistar rat at 5 mg/kg, iv after 0.17 to 24 hrs by LC-MS/MS method; details: in vivo, read-out: beta t1/2 (converted)
Rattus norvegicus = assay: Volume of distribution at steady state in Wistar rat at 5 mg/kg, iv after 0.17 to 24 hrs by LC-MS/MS method; details: in vivo
dengue virus type 2 [15] = assay: Antiviral activity against dengue virus 2 TSV01 in AG129 mouse model of dengue viremia assessed as log reduction in virus plaques at 100 mg/kg, po QD for 3 days relative to untreated control
dengue virus type 2 [16] = assay: Antiviral activity against dengue virus 2 TSV01 in AG129 mouse model of dengue viremia assessed as log reduction in virus plaques at 25 mg/kg, po BID for 3 days relative to untreated control; assay type: functional, organism-based; design: dose 25 mg/kg

Row | SMILES | EC50 (dengue virus type 2 [1]) [µM] | CC50 at 96 h [2] [µM] | other results
1 | O=C1CC2(C(=O)Nc3ccc(Cl)cc32)c2cnn(Cc3ncc(Cl)cn3)c2N1 (racemic) | 85.3 | > 10 | 
2 | O=C1C[C@@]2(C(=O)Nc3ccc(Cl)cc32)c2cnn(Cc3ccc(C(F)(F)F)cc3)c2N1 | 3.9 | > 10 | 
3 | O=C1CC2(C(=O)Nc3ccc(Cl)cc32)c2cnn(Cc3ccccc3Cl)c2N1 (racemic) | 1.7 | > 10 | 
4 | O=C1C[C@]2(C(=O)Nc3ccc(Cl)cc32)c2cnn(Cc3ccc(Cl)cn3)c2N1 | 0.23 | 33 | EC50 (dengue virus type 2 [3]): 0.042 µM; logP [4]: 2.8; hepatic extraction ratio [5]: 0.71; half-life [6]: 24 min; Cmax [7]: 3860 ng/mL; Tmax [8]: 10.2 min; AUC(0-t) at 24 h [9]: 13800 ng·h/mL; bioavailability [10]: 63%; FC (dengue virus type 2 [11]): 1.9; solubility [12]: 504 µM (≈ 209 µg/mL); clearance [13]: 18.8 mL/min/kg; half-life [14]: 78 min; Vdss (Rattus norvegicus): 3 L/kg; FC (dengue virus type 2 [15]): 1.9
5 | C#C[C@@]1(O)[C@H](O)[C@@H](CO)O[C@H]1n1ccc2c(N)ncnc21 |  |  | inhibition (dengue virus type 2 [16]): Active
6 | O=C1CC2(C(=O)Nc3ccc(Br)cc32)c2cnn(Cc3ccc(Cl)cc3)c2N1 (racemic) | 0.05 | > 10 | 
7 | CN1C(=O)C2(CC(=O)Nc3c2cnn3Cc2ccc(Cl)cc2)c2cc(Cl)ccc21 (racemic) | 0.011 | > 10 | 
8 | O=C1CC2(C(=O)Nc3ccc(Cl)cc32)c2cnn(CC3CCC(F)(F)CC3)c2N1 (racemic) | 22.5 | > 10 | 
9 | O=C1CC2(C(=O)Nc3ccc(Cl)cc32)c2cnn(Cc3ccc(Cl)nc3)c2N1 (racemic) | 32.8 | > 10 | 
10 | O=C1CC2(C(=O)Nc3ccc(Cl)cc32)c2cnn(CCc3ccc(Cl)cc3)c2N1 (racemic) | 7.2 | > 10 | 
11 | O=C1CC2(C(=O)Nc3ccc(Cl)cc32)c2cnn(Cc3ccc(Cl)cn3)c2N1 (racemic) | 0.67 | 33 | 
12 | CN1C(=O)[C@@]2(CC(=O)Nc3c2cnn3Cc2ccc(Cl)cc2)c2cc(Cl)ccc21 | 0.772 | > 10 | 
13 | O=C1C[C@@]2(C(=O)Nc3ccc(Cl)cc32)c2cnn(Cc3ccc(Cl)cn3)c2N1 | 18.4 | > 10 | 
14 | O=C1Nc2ccc(Cl)cc2C12CCNc1c2cnn1Cc1ccc(Cl)cc1 (racemic) | 4 | 8.1 | 
15 | O=C1CC2(CNc3ccc(Cl)cc32)c2cnn(Cc3ccc(Cl)cc3)c2N1 (racemic) | 1.1 | > 10 | 
16 | O=C1C[C@@]2(C(=O)Nc3ccc(Cl)cc32)c2cnn(Cc3ccc(Cl)cc3)c2N1 | 2.71 |  | 
17 | O=C1CC2(C(=O)Nc3ccc(Cl)cc32)c2cnn(Cc3ccc(Cl)cc3)c2N1 (racemic) | 0.051 |  | 
18 | O=C1CC2(C(=O)Nc3ccc(Cl)cc32)c2cnn(-c3ccc(Cl)cc3)c2N1 (racemic) | 32.5 | > 10 | 
19 | O=C1C[C@]2(C(=O)Nc3ccc(Cl)cc32)c2cnn(Cc3ccc(C(F)(F)F)cc3)c2N1 | 0.021 | > 10 | logP [4]: 4.1; hepatic extraction ratio [5]: 0.49; half-life [6]: 62 min; solubility [12]: 27 µM (≈ 12.1 µg/mL)
20 | O=C1CC2(C(=O)Nc3ccc(C(F)(F)F)cc32)c2cnn(Cc3ccc(Cl)cc3)c2N1 (racemic) | 1.3 | > 10 | 
21 | CN1C(=O)[C@]2(CC(=O)Nc3c2cnn3Cc2ccc(Cl)cc2)c2cc(Cl)ccc21 | 0.006 | > 10 | logP [4]: 4.6; hepatic extraction ratio [5]: 0.91; half-life [6]: 5.8 min; solubility [12]: 161 µM (≈ 68.8 µg/mL)
22 | O=C1CC2(C(=O)Nc3ccc(Cl)cc32)c2cnn(Cc3cccc(Cl)c3)c2N1 (racemic) | 3.9 | > 10 | 
23 | O=C1C[C@]2(C(=O)Nc3ccc(Cl)cc32)c2cnn(Cc3ccc(Cl)cc3)c2N1 | 0.012 | > 10 | EC50 (dengue virus type 2 [3]): 0.012 µM; logP [4]: 4.9; hepatic extraction ratio [5]: 0.66; half-life [6]: 31 min; Cmax [7]: 780 ng/mL; Tmax [8]: 120 min; AUC(0-t) at 24 h [9]: 9500 ng·h/mL; bioavailability [10]: 33%; solubility [12]: 11 µM (≈ 4.55 µg/mL); clearance [13]: 15.1 mL/min/kg; half-life [14]: 228 min; Vdss (Rattus norvegicus): 4.3 L/kg
24 | O=C1CC2(C(=O)Nc3ccc(Cl)cc32)c2cnn(Cc3ccc(C(F)(F)F)cc3)c2N1 (racemic) | 0.025 | > 10 | 
25 | CN1C(=O)CC2(C(=O)Nc3ccc(Cl)cc32)c2cnn(Cc3ccc(Cl)cc3)c21 (racemic) | 0.42 | > 10 | 
26 | COc1ccc2c(c1)C1(CC(=O)Nc3c1cnn3Cc1ccc(Cl)cc1)C(=O)N2 (racemic) | 2.3 | > 10 | 
27 | COc1ccc(Cn2ncc3c2NC(=O)CC32C(=O)Nc3ccc(Cl)cc32)cc1 (racemic) | 6.2 | > 10 | 
